In publication PMC4948833, “A Sensitive and Robust High-Throughput Screening Assay for Inhibitors of the Chikungunya Virus nsP1 Capping Enzyme” (PLoS ONE, 2016):

Tests used:
[1] = tested on: CHIKV nsP1 guanylation activity; test: Guanylation assay, covalent nsP1-GTP-680 formation, SDS-PAGE fluorescence; details: for effect on nsP1 guanylation activity (in words): 100 μM GTP, 100 μM SAM or both, Fig 2; for effect on nsP1 guanylation activity (in words) / ability to inhibit nsP1 guanylation (in words): 1 hour; for % of control, mean of replicates: mean of n = 3, 100 uM, given as fraction, Fig 2 data; for ability to inhibit nsP1 guanylation (in words): 100 μM of each GTP analog, Fig 4; for Average POC: mean of replicates; for Average POC / Percent of Control: 100 μM analog, Fig 4 data; for Percent of Control: single replicates, scaled guanylation
[2] = biological target: CHIKV nsP1 GTP binding site; test: FP competition assay, displacement of GTP-Bodipy by GTP and RNA cap analogs (apparent Ki / EC50); details: for Ki: read-out: Average Ki, apparent Ki, 500 nM nsP1, 10 nM GTP-Bodipy, 1 hour 25°C; for affinity for nsP1 GTP binding site / ability to compete with GTP-Bodipy (in words): FP competition, compared with GTP
CHIKV nsP1 = test: HTS validation potency repeatability, EC50 of GTP analogs in two independent FP runs

| Compound | Ki [2] [µM] | ability to inhibit nsP1 guanylation (in words) [1] | Average POC [1] | Percent of Control ([1]; 100 µM) | Geometric Mean Potency (CHIKV nsP1; first set of rows) | Geometric Mean Potency (CHIKV nsP1; second set of rows) | affinity for nsP1 GTP binding site / ability to compete with GTP-Bodipy (in words) [2] | further results |
| --- | --- | --- | --- | --- | --- | --- | --- | --- |
| C[S+](CC[C@H](N)C(=O)[O-])C[C@H]1O[C@@H](n2cnc3c(N)ncnc32)[C@H](O)[C@@H]1O (stereo partly shown) [SAM, S-adenosyl methionine] |  |  |  |  |  |  |  | effect on nsP1 guanylation activity (in words) [1]: guanylation activity was maintained; % of control, mean of replicates [1]: 0.9908 |
| Nc1nc2c(ncn2[C@@H]2O[C@H](COP(=O)(O)OP(=O)(O)OP(=O)(O)O)[C@@H](O)[C@H]2O)c(=O)[nH]1 [GTP] | 0.546 | greatest ability to in inhibit nsP1 guanylation activity | 44.8021 | 42.0576 | 5.173 | 5.17 |  | EC50 ([2]; read-out: EC50 concentration of GTP, FP displacement of GTP-Bodipy, used for midpoint signal wells): 6.8 µM; effect on nsP1 guanylation activity (in words) [1]: significantly diminished guanylation activity; % of control, mean of replicates [1]: 0.417; Percent of Control ([1]; listed as GTP2, 100 µM): 51.0432; Percent of Control ([1]; listed as GTP3, 100 µM): 41.3055 |
| Cn1c[n+]([C@@H]2O[C@H](COP(=O)(O)O)[C@@H](O)[C@H]2O)c2nc(N)[nH]c(=O)c21 [me^7-GMP] | 21.9 | least ability to inhibit guanylation | 102.357 |  |  |  | very poor competitor | Percent of Control ([1]; listed as m7-GMP2, 100 µM): 87.9178; Percent of Control ([1]; listed as m7-GMP3, 100 µM): 97.473; Percent of Control ([1]; listed as m7-GMP, 100 µM): 121.679 |
| O=c1ccn([C@@H]2O[C@H](COP(=O)(O)OP(=O)(O)OP(=O)(O)O)[C@@H](O)[C@H]2O)c(=O)[nH]1 [UTP] | 4.46 |  | 59.4237 | 68.643 | 4.3046 | 4.272 | markedly decreased ability to outcompete GTP-Bodipy | Percent of Control ([1]; listed as UTP2, 100 µM): 52.4244; Percent of Control ([1]; listed as UTP3, 100 µM): 57.2037 |
| O=c1[nH]cnc2c1ncn2[C@@H]1O[C@H](COP(=O)(O)OP(=O)(O)OP(=O)(O)O)[C@@H](O)[C@H]1O [ITP] | 1.91 |  | 74.6508 | 92.365 | 4.642 | 4.657 | moderate decrease in affinity | Percent of Control ([1]; listed as ITP2, 100 µM): 66.4533; Percent of Control ([1]; listed as ITP3, 100 µM): 65.1342 |
| Nc1ncnc2c1ncn2[C@@H]1O[C@H](COP(=O)(O)OP(=O)(O)OP(=O)(O)O)[C@@H](O)[C@H]1O [ATP] | 3.34 |  | 73.0319 | 67.4851 | 4.371 | 4.429 | six fold affinity reduction | Percent of Control ([1]; listed as ATP2, 100 µM): 83.2927; Percent of Control ([1]; listed as ATP3, 100 µM): 68.3179 |
| Nc1nc2c(ncn2[C@@H]2O[C@H](CO)[C@@H](O)[C@H]2O)c(=O)[nH]1 [Guanosine] |  | least ability to inhibit guanylation | 109.076 | 100.679 |  |  | not able to calculate a Ki | Percent of Control ([1]; listed as Guanosine2, 100 µM): 132.685; Percent of Control ([1]; listed as Guanosine3, 100 µM): 93.8632 |
| C[n+]1cn([C@@H]2O[C@H](COP(=O)([O-])OP(=O)(O)OP(=O)(O)OC[C@H]3O[C@@H](n4cnc5c(N)ncnc54)[C@H](O)[C@@H]3O)[C@@H](O)[C@H]2O)c2nc(N)[nH]c(=O)c21 [me^7-GpppA] | 7 |  | 75.4802 |  | 4.163 | 4.105 |  | Percent of Control ([1]; listed as m7-GpppA2, 100 µM): 75.9437; Percent of Control ([1]; listed as m7-GpppA3, 100 µM): 80.9779; Percent of Control ([1]; listed as m7-GpppA, 100 µM): 69.519 |
| Nc1nc2c(ncn2[C@H]2CC[C@@H](COP(=O)(O)OP(=O)(O)OP(=O)(O)O)O2)c(=O)[nH]1 [ddGTP] | 0.425 | greatest ability to in inhibit nsP1 guanylation activity | 32.7576 | 32.7691 |  |  | binding slightly better than the others | Percent of Control ([1]; listed as ddGTP2, 100 µM): 30.4919; Percent of Control ([1]; listed as ddGTP3, 100 µM): 35.0118 |
| Nc1ccn([C@@H]2O[C@H](COP(=O)(O)OP(=O)(O)OP(=O)(O)O)[C@@H](O)[C@H]2O)c(=O)n1 [CTP] | 6.94 |  | 49.6579 | 48.7482 | 4.146 | 4.036 | markedly decreased ability to outcompete GTP-Bodipy | Percent of Control ([1]; listed as CTP2, 100 µM): 53.2419; Percent of Control ([1]; listed as CTP3, 100 µM): 46.9836 |
| Nc1nc2c(ncn2[C@@H]2O[C@H](COP(=O)(O)O)[C@@H](O)[C@H]2O)c(=O)[nH]1 [GMP] | 133 | least ability to inhibit guanylation | 99.8208 | 96.3413 | 3.81 | 3.81 | decrease of GMP affinity was quite large | Percent of Control ([1]; listed as GMP2, 100 µM): 112.788; Percent of Control ([1]; listed as GMP3, 100 µM): 90.3332 |
| Nc1nc2c(ncn2[C@H]2C[C@H](O)[C@@H](COP(=O)(O)OP(=O)(O)OP(=O)(O)O)O2)c(=O)[nH]1 [dGTP] | 4.21 | greatest ability to in inhibit nsP1 guanylation activity | 25.7895 | 29.9486 | 5.4125 | 5.208 | less affinity compared to the others | Percent of Control ([1]; listed as dGTP2, 100 µM): 23.146; Percent of Control ([1]; listed as dGTP3, 100 µM): 24.2738 |
| Nc1nc2c(ncn2[C@@H]2O[C@H](COP(=O)(O)OP(=O)(O)O)[C@@H](O)[C@H]2O)c(=O)[nH]1 [GDP] | 4.89 |  | 78.8606 | 63.0295 | 4.329 | 4.21 | slight decrease in affinity | Percent of Control ([1]; listed as GDP2, 100 µM): 85.6756; Percent of Control ([1]; listed as GDP3, 100 µM): 87.8767 |
| O=c1[nH]c(=O)c2ncn([C@@H]3O[C@H](COP(=O)(O)OP(=O)(O)OP(=O)(O)O)[C@@H](O)[C@H]3O)c2[nH]1 [XTP] | 0.402 | greatest ability to in inhibit nsP1 guanylation activity | 32.3662 | 34.0129 | 5.251 | 5.346 | slightly higher affinity compared to GTP | Percent of Control ([1]; listed as XTP2, 100 µM): 27.443; Percent of Control ([1]; listed as XTP3, 100 µM): 35.6426 |
| Cn1c[n+]([C@@H]2O[C@H](COP(=O)([O-])OP(=O)(O)OP(=O)(O)O)[C@@H](O)[C@H]2O)c2nc(N)[nH]c(=O)c21 [me^7-GTP] | 1.55 |  | 37.4013 |  |  |  | able to compete for the GTP binding site | Percent of Control ([1]; listed as m7-GTP2, 100 µM): 37.3024; Percent of Control ([1]; listed as m7-GTP, 100 µM): 37.5003 |
